Patent US8957108B2, “Use of 5,6-dimethylxanthenone-4-acetic acid as an antiviral agent” (University of Maryland, Baltimore, priority 2006, dated 2015)

What was measured:
[1] = system: vesicular stomatitis virus (VSV); format: cell-based, strain Indiana; conditions: RAW 264.7 macrophages pretreated 6 h with 100 μg/ml; highest exposure MOI=10.0
[2] = system: IRF-3; assay: Native-PAGE and Western blotting for IRF-3 dimers; format: cell-based, mouse; conditions: peritoneal macrophages, DMXAA- vs. LPS-stimulated
Protocol: Rabbit anti-mouse IκBα phospho-specific Ab (pAb) was purchased from Santa Cruz Biotechnology, Inc. (Santa Cruz, Calif.). Rabbit anti-mouse MAPK pAb and rabbit anti-human phospho-IRF-3 pAb antibodies were purchased from Cell Signaling (Danvers, Mass.). Rabbit anti-mouse IRF-3 pAb was purchased from Zymed (South San Francisco, Calif.). Native-PAGE for the detection of IRF-3 dimers was carried out as described in Iwamura, T. et al. (2001) “Induction Of IRF-3/-7 Kinase And NF-kappaB in Response To Double-Stranded RNA And Virus Infection: Common And Unique Pathways,” Genes and Cells 6:375-388. Briefly, thioglycollate-elicited peritoneal macrophages were lysed following stimulation with either LPS or DMXAA as indicated. […] Membranes were probed with a 1:250 dilution of rabbit anti-mouse IRF-3 for 1 h at room temperature. Goat anti-rabbit IgG-HRP (Cell Signaling Technologies, Danvers, Mass.) at a 1:2000 dilution was used as the secondary Ab. Blots were developed with ECL Plus (Amersham Biosciences, Piscataway, N.J.).

[3] = system: peritoneal macrophages; assay: Cytokine analysis of macrophage culture supernatants; format: cell-based, mouse; conditions: supernatants at 24 h
[4] = system: MEFs; assay: RANTES protein in MEF supernatants; format: cell-based, mouse; conditions: 24 h
Protocol: IFN-β protein in cell culture supernatants was measured using a custom ELISA originally described in Weinstein, S. L. et al. (2000) “Phosphatidylinositol 3-Kinase And mTOR Mediate Lipopolysaccharide-Stimulated Nitric Oxide Production In Macrophages Via Interferon-Beta,” J. Leukocyte Biol. 67:405-414, with few modifications. […] Plates were blocked with 10% FCS in 1×PBS for 2 h at room temperature. Samples and a murine IFN-β standard (NIH, Bethesda, Md.) were added to wells and incubated overnight at 4° C. […] Wells were washed 3× followed by incubation with a 1:2000 dilution of goat anti-rabbit HRP (Cell Signaling Technologies, Beverly, Mass.) in 10% FCS-PBS for 1 h at room temperature. Plates were washed 3× and developed with TMB substrate (KPL, Gaithersburg, Md.). The reaction was stopped by addition of 1N H2SO4, and plates were read at 450 nm. RANTES and TNF-α were quantified using Luminex bead-based colorimetric assays. […] For stimulation of cells, poly(I:C) was mixed with Fugene 6 transfection reagent (Roche) at a ratio of 1:1 (volume:weight) in OptiMEM medium and incubated for 15 min prior to stimulation. Culture supernatants of cells (2×10^4) seeded on 96-well plates were collected after 24 h stimulation and analyzed for RANTES levels with ELISA. ELISA was performed according to the manufacturer's instructions (R&D Systems).

[5] = system: macrophages; assay: Expression of LPS-inducible early genes and IFN production in macrophages; format: cell-based, mouse
Description: Because all of the cellular activities listed above can be performed by another ubiquitous yet structurally diverse compound, the lipopolysaccharide (LPS) of Gram-negative bacteria, the ability of DMXAA to modulate the expression of a subset of well-characterized LPS-inducible early genes in macrophages was studied in an effort to further elucidate the mechanism of DMXAA action. DMXAA's ability to induce IFN production by macrophages and to modulate the expression of the genes that encode transcription factors IRF-1, IRF-2, and ICSBP members of the interferon regulatory factor (IRF) gene family was also studied. […] These genes are: TNF-α, IL-1β, IP-10, Type 2 Tumor Necrosis Factor Receptor (TNFR-2), D3, and D8.

SMILES: Cc1ccc2c(=O)c3cccc(CC(=O)O)c3oc2c1C [DMXAA, 5,6-dimethylxanthenone-4-acetic acid]
- VSV infection and CPE [1]: completely prevents VSV infection and CPE
- activated IRF-3 dimers [2]: much more abundant and longer-lived
- RANTES production in IRF-3−/− macrophages [3]: fail to produce RANTES
- secretion of TNF-α in IRF-3-deficient macrophages [3]: reduced to background levels
- RANTES secretion in RIG-I−/− MEFs [4]: intact
- induced RANTES in TRIF−/− MEFs [4]: unaffected by the absence of TRIF
- RANTES response in MAVS-deficient MEFs ([4]; MAVS+/+ and MAVS−/− MEFs): induces RANTES via a MAVS-independent pathway
- TNF-α gene expression [5]: only low induction
- expression of the genes encoding IP-10, D8, and D3 [5]: up-regulated to levels similar to those observed upon LPS induction
- induction of TNFR-2 and IL-1β genes [5]: insignificant induction
- induction of Type 1 Interferons (IFNs) ([5]; mouse macrophages): extremely potent inducer
